Experimental data from patent US20160158317A1, “Antimicrobial Peptide Variants and Polynucleotides Encoding Same” (Adenium Biotech A/S, priority 2010, published 2016).
Where a SMILES comes first, the peptide text is derived from it. Bridges are numbered along the chain shown (N, C = ends).

Columns and labels:
E. coli ATCC 10536 = assay: Plate assay screening of variants expressed in S. cerevisiae, overlaid with target organism in presence of horse blood or serum; assay type: cell-based, Escherichia coli; conditions: 2.5% blood, 5% blood or 5% serum
Text: Several strategies were used for variant generation of the polynucleotide of SEQ ID NO:1. The resulting libraries were cloned and expressed in S. cerevisiae. Transformed clones were screened on a plate assay containing growth media supplemented with 1.5% galactose and 0.5% glucose and either horse blood (2.5-5%) or serum (5%), overlayed with the target organism, E. coli ATCC 10536 (See Raventos et al., 2005, Comb Chem High Throughput Screen. 8:219-33).
Approximately, 300 Saccharomyces cerevisiae colonies expressing arenicin variants were spread on screening plates containing either horse blood (2.5% or 5%) or 5% horse serum (see composition of the plates below). Plates were incubated 3 hours at 30° C. to allow them to dry. Next, 25 ml overlay temperate at 42° C. was added to the plates. After the media had solidified, the plates were incubated 3 days at 30° C.
On day 4, plates were overlayed with pre-warmed media at 42° C. containing either 2.5% or 5% horse blood or 5% horse serum and the target bacteria, E. coli ATCC 10536 (see below for details on media composition). After the overlay solidified, plates were incubated 16 hours at 37° C. Next day, plates were colored by adding 10 ml of 1.5 mM MTT to the plates and incubated at room temperature for 30 minutes. Clones giving rise to clearing zones were picked and sequenced. […]

[1] = Determination of the protein binding (90% serum, 30 kDa filter, HPLC); assay type: in vitro ADME; conditions: purified peptide mixed with 90% serum, 30 kDa filter, HPLC; read-out: Protein binding (%) (converted)
Protocol: Protein binding assays were performed as follows. The purified peptides were mixed with 90% serum and centrifuged through a 30 kDa filter. The ultra-filtrate and the non filtrated serum samples were quantified by HPLC measurements and the protein binding was subsequently calculated.

CC(C)[C@@H]1NC(=O)CNC(=O)[C@H](CC(N)=O)NC(=O)[C@H](CCCNC(=N)N)NC(=O)[C@H](Cc2ccc(O)cc2)NC(=O)[C@H](C(C)C)NC(=O)[C@@H]2CSSC[C@H](NC(=O)[C@H](C(C)C)NC(=O)[C@H](CCCNC(=N)N)NC1=O)C(=O)N[C@@H](Cc1ccc(O)cc1)C(=O)N[C@@H](CCCNC(=N)N)C(=O)N[C@@H](CCCNC(=N)N)C(=O)N[C@H](C(=O)N[C@@H](CC(N)=O)C(=O)O)CSSC[C@H](NC(=O)[C@H](Cc1ccccc1)NC(=O)CN)C(=O)N[C@@H](Cc1c[nH]c3ccccc13)C(=O)N[C@@H](Cc1ccc(O)cc1)C(=O)N[C@@H](C(C)C)C(=O)N2 [SEQ ID NO: 2, reference compound] (H-GFCWYVCVYRNGVRVCYRRCN-OH; disulfide 3-20, 7-16)
antimicrobial activity in plate assay (clearing zones) (E. coli ATCC 10536): fully inhibited | fraction unbound [1]: 0.005
